Data on 11 substances can be found in paper PMC5982112 (Peptides, 2018).

Ends that are not written are not given here.

One test relates to Bacillus cereus. The test is described as follows: Broth dilution sterilization assay, B. cereus. The class given is cell-based. As to conditions: lowest concentration that completely sterilizes bacteria in media, mean of at least three independent measurements.
Test [1] has as its system Escherichia coli (ATCC 25922). Kind of test: Broth dilution sterilization assay, E. coli. The class given is cell-based. As to conditions: lowest concentration that completely sterilizes bacteria in media, mean of at least three independent measurements. A general note: In broth dilution the organism is exposed to a series of concentrations in liquid medium.
The test system of test [2] is Staphylococcus aureus (ATCC 25923). The test is described as follows: Broth dilution sterilization assay, S. aureus. The class given is cell-based. Particulars: lowest concentration that completely sterilizes bacteria in media, mean of at least three independent measurements.
Test [3] deals with Pseudomonas aeruginosa (PA01, ATTC 47085). The test is described as follows: Broth dilution sterilization assay, P. aeruginosa. The class given is cell-based. Particulars: lowest concentration that completely sterilizes bacteria in media, mean of at least three independent measurements.
Test [4] concerns bloodstream (infective) form of Trypanosoma brucei. Particulars: cited from earlier work.
Test [5] concerns procyclic (noninfective) form of T. brucei. Particulars: cited from earlier work.
Test [6] has as its system Escherichia coli (ATCC 25922). The class given is cell-based.
The subject of test [7] is Staphylococcus aureus (ATCC 25923). It is filed as cell-based.
For a further test, the system named is E. coli. As to conditions: ref 17 (El Karim et al.); cited from earlier work.
The subject of a further test is S. aureus. As to conditions: ref 17 (El Karim et al.); cited from earlier work.

Turning to PACAP27, the “BC Broth, minimum inhibitory concentration (MIC)” value with Bacillus cereus is above 30 µM. The “EC Broth, minimum inhibitory concentration (MIC)” value in [1] is given as above 30 µM. In addition, the “SA Broth, minimum inhibitory concentration (MIC)” value in test [2] is reported as above 30 µM. Besides, the “PA Broth, minimum inhibitory concentration (MIC)” value in test [3] is 23.6 µM.

Take PACAP(6–38): the “BC Broth, minimum inhibitory concentration (MIC)” value with Bacillus cereus is above 30 µM. The “EC Broth, minimum inhibitory concentration (MIC)” value in [1] is on record as above 30 µM. Further, the “SA Broth, minimum inhibitory concentration (MIC)” value in test [2] is listed as above 30 µM. Besides, in [4], the “Killing of bloodstream (infective) form of Trypanosoma brucei” value is listed as “effective”. Moreover, in [3], the “PA Broth, minimum inhibitory concentration (MIC)” value was determined as 30.0 µM.

With “Pituitary adenylate cyclase-activating polypeptide [PACAP38]”, in the test on Bacillus cereus, the “BC Broth, minimum inhibitory concentration (MIC)” value is 23.3 µM. Moreover, in test [1], the “EC Broth, minimum inhibitory concentration (MIC)” value was 28.3 µM. Also, the “SA Broth, minimum inhibitory concentration (MIC)” value in test [2] is listed as above 30 µM. Besides, the “Killing of bloodstream (infective) form of Trypanosoma brucei” value in test [4] was “killed”. For the same substance, in test [3], the “PA Broth, minimum inhibitory concentration (MIC)” value was found to be 1.2 µM. Moreover, the “Effect on procyclic (noninfective) form of T. brucei” value in test [5] was “resistant”.

Turning to RRGWALRLVLAY-NH2 [ARVA], in the test with Bacillus cereus, the “BC Broth, minimum inhibitory concentration (MIC)” value worked out at 6.4 µM. Further, the “EC Broth, minimum inhibitory concentration (MIC)” value in test [1] stood at 2.3 µM. For the same substance, the “SA Broth, minimum inhibitory concentration (MIC)” value in test [2] turned out to be 5.1 µM. Also, the “PA Broth, minimum inhibitory concentration (MIC)” value in test [3] is 4.3 µM. Further, in test [6], the “EC Radial Diffusion, minimum inhibitory concentration (MIC)” value amounted to 1.57 µM. The “SA Radial Diffusion, minimum inhibitory concentration (MIC)” value in test [7] stood at 3.46 µM.

As to [Ala^22]PACAP38, the “BC Broth, minimum inhibitory concentration (MIC)” value in the test on Bacillus cereus is 4.84 µM. Further, the “EC Broth, minimum inhibitory concentration (MIC)” value in [1] was 2.15 µM. The “SA Broth, minimum inhibitory concentration (MIC)” value in test [2] is listed as above 30 µM. Moreover, in test [3], the “PA Broth, minimum inhibitory concentration (MIC)” value is on record as 0.52 µM.

With [D-Ser^2]PACAP38, the “BC Broth, minimum inhibitory concentration (MIC)” value with Bacillus cereus came out at 13.6 µM. Further, the “EC Broth, minimum inhibitory concentration (MIC)” value in test [1] is on record as above 30 µM. Further, the “SA Broth, minimum inhibitory concentration (MIC)” value in test [2] is above 30 µM. In addition, the “PA Broth, minimum inhibitory concentration (MIC)” value in test [3] is 6.1 µM.

Take “[Pip^3,Aib^16,28,Ala^17,21,Lys^34,D-Lys^38]PACAP38”: the “BC Broth, minimum inhibitory concentration (MIC)” value in the test with Bacillus cereus was 7.26 µM. For the same substance, in test [1], the “EC Broth, minimum inhibitory concentration (MIC)” value is listed as 1.43 µM. Also, the “SA Broth, minimum inhibitory concentration (MIC)” value in test [2] is listed as above 30 µM. Further, in test [3], the “PA Broth, minimum inhibitory concentration (MIC)” value is listed as 0.64 µM.

Turning to “[Pip^3,Aib^16,28,Ala^17,Lys^34,D-Lys^38]PACAP38”, in the test on Bacillus cereus, the “BC Broth, minimum inhibitory concentration (MIC)” value stood at 3.95 µM. Also, the “EC Broth, minimum inhibitory concentration (MIC)” value in test [1] is 2.15 µM. The “SA Broth, minimum inhibitory concentration (MIC)” value in test [2] is reported as above 30 µM. In addition, the “PA Broth, minimum inhibitory concentration (MIC)” value in [3] is 0.52 µM.

Take [Pip^3]PACAP38: the “BC Broth, minimum inhibitory concentration (MIC)” value with Bacillus cereus amounted to 8.9 µM. Besides, the “EC Broth, minimum inhibitory concentration (MIC)” value in [1] is reported as above 30 µM. Further, the “SA Broth, minimum inhibitory concentration (MIC)” value in test [2] is given as above 30 µM. The “PA Broth, minimum inhibitory concentration (MIC)” value in test [3] was 8.9 µM.

On to indolicidin, for which, in the test on Bacillus cereus, the “BC Broth, minimum inhibitory concentration (MIC)” value came to 10.7 µM. Further, the “EC Broth, minimum inhibitory concentration (MIC)” value in test [1] came to 6.24 µM. Further, the “SA Broth, minimum inhibitory concentration (MIC)” value in test [2] came out at 7.9 µM. Also, the “PA Broth, minimum inhibitory concentration (MIC)” value in [3] is on record as above 50 µM.

Turning to vasoactive intestinal peptide [VIP], the “BC Broth, minimum inhibitory concentration (MIC)” value in the test with Bacillus cereus is above 30 µM. For the same substance, the “EC Broth, minimum inhibitory concentration (MIC)” value in test [1] was above 30 µM. Also, the “Activity against E. coli” value in the test on E. coli is listed as “had activity against E. coli”. In addition, the “SA Broth, minimum inhibitory concentration (MIC)” value in test [2] is on record as above 30 µM. For the same substance, the “PA Broth, minimum inhibitory concentration (MIC)” value in [3] is given as 30.0 µM. The “Activity against S. aureus” value in the test with S. aureus is recorded as “not against S. aureus”.
